Key:
[1] = molecular target: T1, human recombinant SERT (HEK293-hSERT cells) (Homo sapiens, UniProt P31645); assay: hSERT neurotransmitter uptake assay; assay type: cell-based; settings: serotonin reuptake inhibition in HEK293-hSERT cells; read-out: SERT pIC50 (converted)
T1 construct: expressed in transfected cells; host or cells: HEK293 (stably transfected), whole cells
Procedure: HEK293 cells stably-transfected with human recombinant SERT (HEK293-hSERT) were grown in Dulbecco's Modified Eagle's Medium supplemented with 10% dialyzed fetal bovine serum, 100 µg/ml penicillin, 100 µg/ml streptomycin, 2 mM L-glutamine, and 250 μg/ml of the aminoglycoside antibiotic G418. Cells were incubated in a 5% CO2, humidified incubator at 37° C.
In pre-incubation studies, test compound was added to cells for 30 minutes at 37° C. prior to the addition of fluorescent substrate. […] For real-time measurements, compounds were either preincubated (as above) or mixed with substrate prior to addition, and kinetic measurements, relative fluorescence units (RFU integrated over 0.5 ms),were made using a cycle time of 1 min.

[2] = molecular target: T2, human recombinant serotonin transporter (hSERT) (Homo sapiens, UniProt P31645); assay: hSERT binding assay (3H-citalopram membrane radioligand binding); settings: inhibition of 3H-citalopram binding to membranes from HEK-293 cells expressing hSERT; Cheng-Prusoff; read-out: SERT pKi (converted)
T2 construct: expressed in transfected cells; host or cells: HEK-293 (stably transfected), membrane preparation
T2 sequence (P31645 whole entry): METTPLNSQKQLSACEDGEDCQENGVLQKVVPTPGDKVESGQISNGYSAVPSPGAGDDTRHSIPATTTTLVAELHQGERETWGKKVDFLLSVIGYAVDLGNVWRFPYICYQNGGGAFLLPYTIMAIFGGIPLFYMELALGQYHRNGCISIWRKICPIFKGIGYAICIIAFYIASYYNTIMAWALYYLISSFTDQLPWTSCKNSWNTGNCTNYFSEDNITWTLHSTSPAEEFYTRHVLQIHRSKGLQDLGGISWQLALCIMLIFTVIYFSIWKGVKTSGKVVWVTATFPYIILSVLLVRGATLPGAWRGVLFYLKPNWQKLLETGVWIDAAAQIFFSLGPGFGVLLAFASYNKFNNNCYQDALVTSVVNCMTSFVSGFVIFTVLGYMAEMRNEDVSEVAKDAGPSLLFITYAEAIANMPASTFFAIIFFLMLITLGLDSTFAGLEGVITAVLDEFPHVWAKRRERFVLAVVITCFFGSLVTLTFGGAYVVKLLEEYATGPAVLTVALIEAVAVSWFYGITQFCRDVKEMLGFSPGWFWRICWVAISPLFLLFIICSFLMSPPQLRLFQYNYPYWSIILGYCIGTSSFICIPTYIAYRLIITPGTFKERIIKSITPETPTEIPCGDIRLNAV
Procedure: Protein concentration of the membrane suspension was determined using a Bio-Rad Bradford Protein Assay kit. Membranes were snap frozen and stored at −80° C.
Following a 60 minute incubation at 22° C. […] IC50 values were generated from concentration response curves using the Sigmoidal Dose Response (variable slope) algorithm in Prism GraphPad.

T1 sequence (P31645 whole entry): as above

IC50 [1] [nM] | Ki [2] [nM] | Compound
≤ 10 | ≤ 10 | CC(=O)N(C[C@@H](Oc1ccc(C(F)(F)F)cc1)[C@H]1CCNC1)S(C)(=O)=O [Example 3-4, N-Acetyl-N-[(S)-2-(S)-pyrrolidin-3-yl-2-(4-trifluoromethylphenoxy)ethyl]-methanesulfonamide]
≤ 100 | ≤ 100 | O=C(O)c1ccc(S(=O)(=O)NC[C@@H](Oc2ccc(C(F)(F)F)cc2)[C@H]2CCNC2)cc1 [Example 3-21, 4-[(S)-2-(S)-Pyrrolidin-3-yl-2-(4-trifluoromethylphenoxy)ethylsulfamoyl]-benzoic acid]
≤ 10 | ≤ 10 | CS(=O)(=O)NC[C@@H](Oc1ccc(C(F)(F)F)cc1)[C@H]1CCNC1 [Example 3-1, N-[(S)-2-(S)-Pyrrolidin-3-yl-2-(4-trifluoromethylphenoxy)ethyl]-methanesulfonamide]
≤ 10 | – | O=S(=O)(NC[C@@H](Oc1ccc(C(F)(F)F)cc1)[C@H]1CCNC1)C1CC1 [Example 3-8, Cyclopropanesulfonic acid [(S)-2-(S)-pyrrolidin-3-yl-2-(4-trifluoromethylphenoxy)ethyl]amide]
